Tested on: FP receptor
Test: porcine eyecup model of ex vivo vasomotricity assay, PGF2α-induced constriction of retinal microvessels
Text: In order to see if the peptides could inhibit FP function using an ex vivo model, we chose porcine eyecup model, an ex vivo assay of vascular constriction in porcine retinas which we previously described and validated (Li et al., 1996 J. Pharmacol. Expt. Therapeut. 278: 370-377; Li et al., 1997 Am. J. Physiol. 273: R1283-90; Abran et al., 1997 Am. J. Physiol. 272: R995-1001). Since FP receptor densities in newborn vasculature are minimal due to down regulation by high levels of circulating prostaglandins in the perinatal period, the newborn pigs were treated with a prostaglandin synthetase blocker, ibuprofen (30 mg/Kg of bodyweight/ 8 h for 24 h) to increase the density of the receptors as well as their vasomotor effects. By inhibiting circulating prostaglandins; we were able to show potent inhibition of FP receptor-mediated second messenger synthesis as well as FP-mediated vascular constriction in this eyecup model.
The preparations were allowed to stabilize for 30 min.
Vascular diameter was recorded before and 10 min following the topical application of the agent.
Small letters indicate L-amino acids and capital letters indicate D- amino acids. I = isoleucine; L= leucine; G =glycine; H=histidine, R=Arginine; D=Aspartic acid; Y=Tyrosine; […]; A-Alanine; W= Tryptophan; E-Glutamic acid; F= Phenyl alanine; Q=Glutamine; N=Aspargine; P=Proline; S=Serine; X=Cyclohexyl alanine.

%Vasomotor response (of constriction) (100 µM peptide added 30 min before 10^-7 M PGF2α, relative to maximal constriction in the absence of peptide): 36.9% | % inhibition of maximal max. response (100 µM peptide, 10^-7 M PGF2α, calculated as 100 - per cent vasomotor response): 63.1%
Sequence: ILGHKDYK [PCP-13.13, R to K variant of PCP-13]
change of inhibitory activity relative to the parent peptide (in words) (peptides at 100 µM, compared with PCP-13 (PCP-13 and PCP-11 with PCP-8, PCP-12 with PCP-10)): affected the activity of PCP-13 moderately

Source: patent EP1114151B1, “G PROTEIN-COUPLED RECEPTOR ANTAGONISTS” (Hopital Sainte-Justine, priority 1998, dated 2011)
